Like-named read-outs stand apart in the source and are kept apart here. Square brackets hold non-standard residues; d marks the D form. Peptide text beside a SMILES is read from it. dPhe(4-Cl) = N[C@H](Cc1ccc(Cl)cc1)C(=O)O; d2Nal = N[C@H](Cc1ccc2ccccc2c1)C(=O)O; dCit = NC(=O)NCCC[C@@H](N)C(=O)O; d3Pal = N[C@H](Cc1cccnc1)C(=O)O
Key:
[1] = biological target: T1, human GnRHR (Homo sapiens, UniProt P30968); experiment: Tag-Lite receptor binding assay; details: Hek293 cells transiently transfected with human GnRHR; green-labelled GnRHR binding peptide; read-out: Potency in receptor binding assay using TAG-LITE technology, given as IC50
T1 construct: host or cells: HEK293 (transient transfection), purchased as frozen labelled cells
T1 sequence (P30968 1-328): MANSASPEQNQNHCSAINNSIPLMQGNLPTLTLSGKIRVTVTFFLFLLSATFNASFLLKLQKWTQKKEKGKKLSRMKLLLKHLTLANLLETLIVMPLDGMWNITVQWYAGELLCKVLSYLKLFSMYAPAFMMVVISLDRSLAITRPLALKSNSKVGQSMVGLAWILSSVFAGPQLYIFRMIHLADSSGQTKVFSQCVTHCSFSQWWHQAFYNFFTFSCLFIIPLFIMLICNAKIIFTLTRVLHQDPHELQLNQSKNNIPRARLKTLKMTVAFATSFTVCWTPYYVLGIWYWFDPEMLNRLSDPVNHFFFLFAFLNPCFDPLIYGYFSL
Description: This binding assay is based on the fluorescence resonance energy transfer between fluorescence donor labelled human GnRHR and a green-labelled GnRHR binding peptide. Compounds interfering with the ligand binding side of the human GnRHR will replace the labelled peptide resulting in a signal decrease. The assay principle was established by Cisbio Bioassays (Bagnols-sur-Cèze Cedex, France) and further details are available on their homepage.
The assay procedure was further optimized for use in-house with reduced assay volumes. Frozen Hek293 cells, transiently transfected with human GnRHR and Terbium-labelling of the receptor, were supplied by Cisbio Bioassays as well as Tag-Lite buffer and green-labelled GnRHR binding peptide. Cells were thawed and transferred to cold Tag-Lite buffer. A volume of 8 μl of this cell suspension were added to 100 nl of a 160-fold concentrated solution of the test compound in DMSO pre-dispensed in a well of a white low-volume 384-well microtiter plate (Greiner Bio-One, Frickenhausen, Germany). The mixture was incubated for 5 min at room temperature. In the next step either 4 μl Tag-Lite buffer or as control 4 μl of an exceeding amount unlabelled binding peptide in Tag-Lite buffer were transferred to the mixture. The green-labelled GnRHR binding peptide was added in a final step at EC50 in a volume of 4 μl Tag-Lite buffer. After an incubation of 1 h at room temperature plates were measured in a microplate reader, e.g. a PHERAstar (BMG Labtechnologies, Offenburg, Germany) by using a specific optic module.
A ratio from the fluorescence emissions at 520 nm (green fluorescence) and at 490 nm (background signal of Terbium-labelled GnRHR) was calculated and the data were normalized (reaction without test compound=0% inhibition of binding of green-labelled peptide; reaction without test compound with exceeding amount unlabelled binding peptide=100% inhibition of binding of green-labelled peptide). On the same microtiter plate, compounds were tested at 10 different concentrations in the range of 12.5 μM to 0.64 nM (12.5 μM, 4.2 μM, 1.4 μM, 0.46 μM, 0.15 μM, 51 nM, 17 nM, 5.7 nM, 1.9 nM and 0.64 nM; dilution series prepared before the assay at the level of the 160-fold conc. stock solutions by serial 1:3 dilutions in 100% DMSO) in duplicate values for each concentration. By using an in-house software, the IC50 values were calculated by a 4 parameter fit.

[2] = biological target: T2, human GnRH receptor (Homo sapiens, UniProt P30968); experiment: IP-One HTRF assay with buserelin (at EC80) stimulation; format: cell-based; details: CHO cells stably expressing human GnRH receptor, read-out: Potency in IP-One HTRF assay, given as IC50
T2 sequence (P30968 1-328): T1 sequence (P30968 1-328)
Procedure, shortened: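 CHO cells stably expressing human GnRH receptor, preincubated 1 h at 37° C with IP1-d2, were exposed to compound and buserelin at EC80 for 1 h at 37° C. After lysis with Tb-anti-IP1 antibody (1 h, 22° C), 665/620 nm HTRF ratio read; 10 concentrations, 20 μM–1 nM, duplicates, 4-parameter IC50.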

[3] = system: serum LH; experiment: LH suppression in the ovariectomized rat; format: in vivo; details: ovariectomized rats; for LH suppression: at 6 hours
Description: The in vivo potency of GnRH antagonists can be quantified by a LH suppression test in ovariectomized rats. GnRH triggers the LH release from the pituitary mediated by GnRH receptors. Ovarectomy of adult female rats results in elevated levels of circulating LH due to a lack of negative feedback by gonadal steroids. GnRH antagonists suppress the release of LH and accordingly suppression of LH levels can be used to quantify the in vivo potency of GnRH antagonists.
(§1) Female adult rats were ovariectomized surgically and they were allowed to recover for at least one week. The animals received 1 mg/kg, 10 mg/kg or 30 mg/kg of Example 14.1 by single per oral administration. For comparison reasons a vehicle control and a positive control, 0.1 mg/kg cetrorelix i.p., were given once. At 0 min, 15 min, 30 min, 1 hour, 2 hours, 6 hours and 24 hours after compound administration blood was taken from the retro orbital plexus (n=6 per blood withdrawal) for the measurement of serum LH and serum compound levels.

[4] = Serum compound levels in ovariectomized rats; format: in vivo; details: female, rat, read-out: serum compound level
Method: as §1

O=C(NCc1ccccc1Cl)c1ccc2c(c1)C1(CC[S+]([O-])CC1)C(C1CC1)N2S(=O)(=O)c1ccc(F)cc1 (single isomer, unassigned) [Example 13.1, N-(2-Chlorobenzyl)-2-cyclopropyl-1-[(4-fluorophenyl)sulfonyl]-1,2,2′,3′,5′,6′-hexahydrospiro[indole-3,4′-thiopyran]-5-carboxamide 1′-oxide]
IC50 [1]: 8.5 nM | IC50 [2]: 12 nM

O=C(NCc1ncccc1Cl)c1ccc2c(c1)C1(CCS(=O)(=O)CC1)C(C1CC1)N2S(=O)(=O)c1ccc(F)cc1 (single isomer, unassigned) [Example 14.1, N-[(3-Chloropyridin-2-yl)methyl]-2-cyclopropyl-1-[(4-fluorophenyl)sulfonyl]-1,2,2′,3′,5′,6′-hexahydrospiro[indole-3,4′-thiopyran]-5-carboxamide 1′,1′-dioxide]
IC50 [1]: 20 nM | LH suppression ([3]; 1 mg/kg single per oral): 11% | LH suppression ([3]; 10 mg/kg single per oral): 89% | LH suppression ([3]; 30 mg/kg single per oral): 88% | in vivo activity (conclusion in words) ([3]; per oral): orally active GnRH antagonist in vivo | concentration at 6 h ([4]; 1 mg/kg per oral): 40 nM | concentration at 6 h ([4]; 10 mg/kg per oral): 770 ± 200 nM | concentration at 6 h ([4]; 30 mg/kg per oral): 1840 ± 530 nM | IC50 [2]: 104 nM

O=C(NCc1ccccc1Cl)c1ccc2c(c1)C1(CCS(=O)(=O)CC1)C(C1CC1)N2S(=O)(=O)c1ccc(F)cc1 (single isomer, unassigned) [Example 18.1, N-(2-chlorobenzyl)-2-cyclopropyl-1-[(4-fluorophenyl)sulfonyl]-1,2,2′,3′,5′,6′-hexahydrospiro[indole-3,4′-thiopyran]-5-carboxamide 1′,1′-dioxide]
IC50 [1]: 11 nM | IC50 [2]: 26 nM

O=C(NCc1ccccc1C(F)F)c1ccc2c(c1)C1(CCS(=O)(=O)CC1)C(C1CC1)N2S(=O)(=O)c1ccc(F)cc1 (single isomer, unassigned) [Example 68.1, 2-cyclopropyl-N-[2-(difluoromethyl)benzyl]-1-[(4-fluorophenyl)sulfonyl]-1,2,2′,3′,5′,6′-hexahydrospiro[indole-3,4′-thiopyran]-5-carboxamide 1′,1′-dioxide]
IC50 [1]: 9.5 nM | IC50 [2]: 4.2 nM

O=C(Nc1cccc(Cl)c1)c1ccc2c(c1)C1(CCS(=O)(=O)CC1)C(C1CC1)N2S(=O)(=O)c1ccc(F)cc1 (centres unmarked) [Example 24, N-(3-chlorophenyl)-2-cyclopropyl-1-[(4-fluorophenyl)sulfonyl]-1,2,2′,3′,5′,6′-hexahydrospiro[indole-3,4′-thiopyran]-5-carboxamide 1′,1′-dioxide]
IC50 [1]: 187 nM | IC50 [2]: 264 nM

O=C(Nc1ccccc1Cl)c1ccc2c(c1)C1(CCS(=O)(=O)CC1)C(C1CC1)N2S(=O)(=O)c1ccc(F)cc1 (centres unmarked) [Example 67, N-(2-chlorophenyl)-2-cyclopropyl-1-[(4-fluorophenyl)sulfonyl]-1,2,2′,3′,5′,6′-hexahydrospiro[indole-3,4′-thiopyran]-5-carboxamide 1′,1′-dioxide]
IC50 [1]: 154 nM | IC50 [2]: 113 nM

N#Cc1ccc(S(=O)(=O)N2c3ccc(C(=O)Nc4ccccc4F)cc3C3(CCS(=O)(=O)CC3)C2C2CC2)cc1 (centres unmarked) [Example 75, 1-[(4-cyanophenyl)sulfonyl]-2-cyclopropyl-N-(2-fluorophenyl)-1,2,2′,3′,5′,6′-hexahydrospiro[indole-3,4′-thiopyran]-5-carboxamide 1′,1′-dioxide]
IC50 [1]: 30 nM | IC50 [2]: 53 nM

NC(=O)c1ccc(S(=O)(=O)N2c3ccc(C(=O)Nc4cccc(S(=O)(=O)Nc5nccs5)c4)cc3C3(CCS(=O)(=O)CC3)C2C2CC2)cc1 (centres unmarked) [Example 96, 1-[(4-carbamoylphenyl)sulfonyl]-2-cyclopropyl-N-[3-(1,3-thiazol-2-ylsulfamoyl)phenyl]-1,2,2′,3′,5′,6′-hexahydrospiro[indole-3,4′-thiopyran]-5-carboxamide 1′,1′-dioxide]
IC50 [2]: 484 nM

O=C(Nc1ccc2c(c1)C1(CCS(=O)(=O)CC1)C(C1CC1)N2S(=O)(=O)c1ccc(F)cc1)C1CC1 (centres unmarked) [Example 97, N-{2-Cyclopropyl-1-[(4-fluorophenyl)sulfonyl]-1′,1′-dioxido-1,2,2′,3′,5′,6′-hexahydrospiro[indole-3,4′-thiopyran]-5-yl}cyclopropanecarboxamide]
IC50 [2]: 2230 nM

O=C(Nc1ccc2c(c1)C1(CCS(=O)(=O)CC1)C(C1CC1)N2S(=O)(=O)c1ccc(F)cc1)C1CCCCC1 (centres unmarked) [Example 98, N-{2-cyclopropyl-1-[(4-fluorophenyl)sulfonyl]-1′,1′-dioxido-1,2,2′,3′,5′,6′-hexahydrospiro[indole-3,4′-thiopyran]-5-yl}cyclohexanecarboxamide]
IC50 [2]: 39 nM

O=C(Nc1ccc2c(c1)C1(CCS(=O)(=O)CC1)C(C1CC1)N2S(=O)(=O)c1ccc(F)cc1)C1CCCC1 (centres unmarked) [Example 99, N-{2-cyclopropyl-1-[(4-fluorophenyl)sulfonyl]-1′,1′-dioxido-1,2,2′,3′,5′,6′-hexahydrospiro[indole-3,4′-thiopyran]-5-yl}cyclopentanecarboxamide]
IC50 [2]: 300 nM

CC(=O)N[C@H](Cc1ccc2ccccc2c1)C(=O)N[C@H](Cc1ccc(Cl)cc1)C(=O)N[C@H](Cc1cccnc1)C(=O)N[C@@H](CO)C(=O)N[C@@H](Cc1ccc(O)cc1)C(=O)N[C@H](CCCNC(N)=O)C(=O)N[C@@H](CC(C)C)C(=O)N[C@@H](CCCNC(=N)N)C(=O)N1CCC[C@H]1C(=O)N[C@H](C)C(N)=O [cetrorelix, reference compound] (Ac-[d2Nal][dPhe(4-Cl)][d3Pal]SY[dCit]LRP[dA]-NH2)
LH suppression ([3]; 0.1 mg/kg i.p.): 91%

Source: US20140357655A1, “SPIROINDOLINE DERIVATIVES AS GONADOTROPIN- RELEASING HORMONE RECEPTOR ANTAGONISTS” (Bayer Intellectual Property GmbH, priority 2012, published 2014)
